Data from US20240285528A1, “NANO-MOLECULE AGGREGATE CONSISTING OF ORGANIC MATERIAL, INORGANIC MATERIAL OR SALT THEREOF AND PREPARATION METHOD THEREFOR” (SCAI THERAPEUTICS CO., LTD., priority 2021, published 2024).

Experiment: Aqueous solubility (dispersity) by HPLC after stirring and filtration
Assay type: physicochemical
Settings: water, stirred at 25° C. for 10 hours, 0.2 micron filter

SMILES | Aqueous solubility (dispersity)
Nc1ncnc2c1ncn2[C@@H]1O[C@H](CO)[C@@H](O)[C@H]1O [Adenosine, adenosine] | 0.27 % (wt/v)
CC(=O)Oc1cc2c(cc1Cl)C(c1ccccc1C(=O)O)c1cc(Cl)c(OC(C)=O)cc1O2 [DCF-DA, 2′, 7′-dichlorofluorescin diacetate] | 0.004 % (wt/v)

The next lines start with the values.

Aqueous solubility (dispersity) | SMILES
0.321 % (wt/v) | C=C1CCN([C@H](C)[C@](O)(Cn2cncn2)c2ccc(F)cc2F)CC1 [Epinaconazole, epinaconazole]
0.0033 % (wt/v) | O=C(Nc1ccc([N+](=O)[O-])cc1Cl)c1cc(Cl)ccc1O [Niclosamide, niclosamide]
7.6 % (wt/v) | C=CC[C@@H]1/C=C(\C)C[C@H](C)C[C@H](OC)[C@H]2O[C@@](O)(C(=O)C(=O)N3CCCC[C@H]3C(=O)O[C@H](/C(C)=C/[C@@H]3CC[C@@H](O)[C@H](OC)C3)[C@H](C)[C@@H](O)CC1=O)[C@H](C)C[C@@H]2OC [Tacrolimus, tacrolimus]
